The record followed here is ChEMBL document CHEMBL1201862, “PubChem BioAssay data set” (2004).

Holding throughout (assay): NCI tumour cell line growth inhibition, 48 h
For experiment [1], the system named is 786-0.
The subject of experiment [2] is A549.
Experiment [3] deals with BT-549.
Experiment [4] deals with COLO 205.
Experiment [5] concerns HCT-116.
Experiment [6] deals with HCT-15.
In experiment [7] the test system is HT-29.
Experiment [8] relates to KM12.
In experiment [9] the test system is LOX IMVI.
Experiment [10] concerns MDA-MB-435.
Experiment [11] concerns MDA-N.
Experiment [12] relates to MOLT-4.
In experiment [13] the test system is NCI-H23.
The test system of experiment [14] is NCI-H460.
For experiment [15], the system named is NCI-H522.
For experiment [16], the system named is OVCAR-8.
Experiment [17] deals with SF-268.
For experiment [18], the system named is SF-295.
In experiment [19] the test system is SK-MEL-28.
The test system of experiment [20] is T47D.

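Following 48 hours of exposure in 96-well plates, responses at five concentrations were used to interpolate endpoints linearly. Here, GI50 denotes the concentration required for 50% inhibition of growth.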 Activity calls are given as the source filed them. Cut-off read from the data, not from the text of the source: active = GI50 up to about 1.1 µM and inactive = higher. A value given as a limit tells only on which side of the number the result lay.

With `O=C(CC(=O)Nc1ccccc1Cl)NNC(c1cc(/N=N/c2ccc(Br)cc2)ccc1O)P(O)O` (centres undefined), the GI50 in [1] is 0.565 µM (active); in experiment [2] it was 3.82 µM (inactive); in experiment [3], 2.33 µM (inactive); in experiment [4], 3.89 µM (inactive); in [5], 0.311 µM (active); in experiment [6], 0.594 µM. Moreover, the GI50 is > 10 µM (inactive) in experiment [7]; 2.95 µM (inactive) in experiment [8]; 1.07 µM (active) in experiment [9]; 2.04 µM (inactive) in [10]; 3.2 µM (inactive) in experiment [11]; 0.338 µM (active) in experiment [12]. Also, the GI50 is 2.53 µM (inactive) in [13]; 0.537 µM (active) in [14]; 2.97 µM (inactive) in experiment [15]; 0.525 µM (active) in experiment [16]; 0.679 µM (active) in experiment [17]; 1.67 µM (inactive) in experiment [18]. The GI50 in experiment [19] is 7.43 µM (inactive); in [20], 2.12 µM (inactive).

Take `CCc1nc(Cl)nc(Cl)c1Cl`: the GI50 in [1] is 0.415 µM (active); in experiment [2] it was 2.63 µM (inactive); in [3] it was 2.01 µM (inactive); in experiment [4], 0.284 µM (active); in [5], 0.948 µM (active); in [6], 0.318 µM. The GI50 is 0.394 µM (active) in experiment [7]; 3.48 µM (inactive) in experiment [8]; 0.0826 µM (active) in experiment [9]; 1.06 µM (active) in experiment [10]; 1.77 µM (inactive) in [11]; 0.332 µM (active) in [12]. Besides, the GI50 was 1.08 µM (active) in experiment [13]; 7.98 µM (inactive) in experiment [14]; 0.0494 µM (active) in experiment [15]; 1.04 µM (active) in experiment [16]; 0.54 µM (active) in experiment [17]; 8.57 µM (inactive) in [18]. Besides, the GI50 in experiment [19] is 4.95 µM (inactive); in experiment [20], 5.55 µM (inactive).

As to `COc1ccc(/C=C2\CC3C4CC=C5C[C@@H](O)CC[C@]5(C)C4CC[C@]3(C)C2=O)cc1OC` (some centres undefined), the GI50 in experiment [1] is 40.3 µM (inactive); in experiment [2], 27.9 µM (inactive); in experiment [3] it was 44.6 µM (inactive); in experiment [4], 16.3 µM (inactive); in experiment [5] it was 24 µM (inactive); in experiment [6], 34 µM. Also, the GI50 was 31.8 µM (inactive) in experiment [7]; 32.8 µM (inactive) in experiment [8]; 30.8 µM (inactive) in experiment [9]; 24.3 µM (inactive) in experiment [10]; 42.2 µM (inactive) in experiment [11]; 20 µM (inactive) in [12]. The GI50 in experiment [13] is 42.6 µM (inactive); in experiment [14] it was 17.3 µM (inactive); in experiment [15] it was 17.2 µM (inactive); in [16] it was 43.3 µM (inactive); in [17], 64.7 µM (inactive); in experiment [18], 11.4 µM (inactive). The GI50 was 81.1 µM (inactive) in [19] and 8.28 µM (inactive) in [20].

Regarding `CCOC(=O)C(=[N+]=[N-])C(=O)C[N+]12CCN(CC1)CC2`, the GI50 in experiment [1] is > 100 µM (inactive); in experiment [2], > 100 µM (inactive); in experiment [3] it was > 100 µM (inactive); in experiment [4] it was > 100 µM (inactive); in experiment [5], > 100 µM (inactive); in [6] it was more than 100 µM. For the same compound, the GI50 in experiment [7], in [8], in experiment [9], in [10], in experiment [11] and in experiment [12] was > 100 µM (inactive) each time. Besides, the GI50 in experiment [13], in experiment [14], in [15], in experiment [16], in experiment [17] and in [18] was > 100 µM (inactive) throughout. The GI50 in experiment [19] and in [20] was > 100 µM (inactive) in each case.

`O=c1c(Sc2ncccn2)c(Sc2ncccn2)cnn1CCl`: the GI50 is 1.87 µM (inactive) in experiment [1]; 16.4 µM (inactive) in [2]; 10.2 µM (inactive) in experiment [3]; 1.76 µM (inactive) in [4]; 1.85 µM (inactive) in experiment [5]; 3.02 µM in [6]. Moreover, the GI50 in [7] was 1.98 µM (inactive); in experiment [8] it was 14.7 µM (inactive); in experiment [9] it was 2.01 µM (inactive); in experiment [10], 1.77 µM (inactive); in [11], 2.17 µM (inactive); in experiment [12], 2.72 µM (inactive). Further, the GI50 in experiment [13] was 4.67 µM (inactive); in [14] it was 14.7 µM (inactive); in [15] it was 0.665 µM (active); in experiment [16], 2.08 µM (inactive); in [17], 2.99 µM (inactive); in [18], 15.3 µM (inactive). For the same compound, the GI50 in experiment [19] was 3.41 µM (inactive); in experiment [20], 3.23 µM (inactive).

On to `CCN(CC)CCO/N=C1\CC[C@H]2[C@@H]3CCc4cc(OC)ccc4[C@H]3CC[C@]12C`, for which the GI50 in experiment [1] was 1.59 µM (inactive); in [2], 2.84 µM (inactive); in experiment [3] it was 4.56 µM (inactive); in [4] it was 1.57 µM (inactive); in experiment [5] it was 1.44 µM (inactive); in experiment [6], 0.489 µM. In addition, the GI50 in experiment [7] is 0.53 µM (active); in experiment [8], 2.01 µM (inactive); in [9], 0.789 µM (active); in experiment [10], 0.632 µM (active); in experiment [11], 1.75 µM (inactive); in experiment [12] it was 1.44 µM (inactive). Besides, the GI50 in experiment [13] is 5.09 µM (inactive); in experiment [14], 0.804 µM (active); in experiment [15], 2.52 µM (inactive); in experiment [16], 2.6 µM (inactive); in [17], 2.07 µM (inactive); in experiment [18], 1.83 µM (inactive). Also, the GI50 is 0.628 µM (active) in experiment [19] and 2.79 µM (inactive) in experiment [20].

`[N-]=[N+]=NC1(c2ccccc2)C(=O)c2cccc3c4ccccc4n(c23)C1=O` (centres undefined): the GI50 was > 100 µM (inactive) in [1]; 76.2 µM (inactive) in [2]; > 100 µM (inactive) in [3]; 6.5 µM (inactive) in experiment [4]; 84.3 µM (inactive) in experiment [5]; more than 100 µM in experiment [6]. Moreover, the GI50 in [7] is 18.4 µM (inactive); in experiment [8] it was 53.1 µM (inactive); in [9], > 100 µM (inactive); in [10] it was 27.9 µM (inactive); in experiment [11], 34.4 µM (inactive); in experiment [12], 98.4 µM (inactive). For the same compound, the GI50 in [13] was 52.2 µM (inactive); in experiment [14] it was > 100 µM (inactive); in [15], 45.6 µM (inactive); in experiment [16], > 100 µM (inactive); in [17] it was > 100 µM (inactive); in experiment [18], 57.8 µM (inactive). The GI50 in experiment [19] and in experiment [20] was > 100 µM (inactive) throughout.

For `C=CC(C)(C)c1cc([C@@H]2COc3cc(O)ccc3C2=O)c(O)c(O)c1OC`, the GI50 in experiment [1] was 14.3 µM (inactive); in [2], 33.7 µM (inactive); in experiment [3] it was 18 µM (inactive); in experiment [4] it was 26.7 µM (inactive); in experiment [5], 16.9 µM (inactive); in experiment [6], 16.5 µM. The GI50 in experiment [7] was 21.9 µM (inactive); in experiment [8] it was 19.8 µM (inactive); in experiment [9] it was 16.2 µM (inactive); in experiment [10], 19.3 µM (inactive); in [11], 22.2 µM (inactive); in [12] it was 25.7 µM (inactive). The GI50 in experiment [13] was 17.1 µM (inactive); in [14], 66.4 µM (inactive); in experiment [15], 17 µM (inactive); in experiment [16], 16.4 µM (inactive); in experiment [17], 18.2 µM (inactive); in experiment [18] it was 39.4 µM (inactive). Moreover, the results for the GI50 in [19] and in experiment [20] were 27.8 µM (inactive) and 25.4 µM (inactive), respectively.

For the compound `O=C(OCC(Cl)(Cl)Cl)O[C@@H]1CCCC1(c1ccccc1)c1ccccc1`, the GI50 in experiment [1] was > 100 µM (inactive); in experiment [2], 65.3 µM (inactive); in experiment [3], > 100 µM (inactive); in experiment [4] it was > 100 µM (inactive); in experiment [5], 44.8 µM (inactive); in experiment [6], 77.4 µM. In addition, the GI50 in experiment [7] is > 100 µM (inactive); in [8], 45.3 µM (inactive); in experiment [9], 76.7 µM (inactive); in experiment [10] it was 24.2 µM (inactive); in experiment [11] it was 72.4 µM (inactive); in experiment [12] it was 6.81 µM (inactive). Besides, the GI50 in experiment [13] is 68.1 µM (inactive); in experiment [14] it was 71 µM (inactive); in experiment [15] it was 38.7 µM (inactive); in [17], > 100 µM (inactive); in experiment [18], > 100 µM (inactive); in experiment [19], 78.7 µM (inactive). Moreover, in experiment [20], the GI50 is 72.1 µM (inactive).

Regarding `COc1ccc2cc(C(C)C(=O)N3CCOC3=O)ccc2c1` (centres undefined), the GI50 in experiment [1] is > 100 µM (inactive); in experiment [2], > 100 µM (inactive); in [3], > 100 µM (inactive); in [4], > 100 µM (inactive); in experiment [5] it was > 100 µM (inactive); in experiment [6], more than 100 µM. In addition, the GI50 in experiment [7], in experiment [8], in experiment [9], in [10], in experiment [11] and in experiment [12] was > 100 µM (inactive) in each case. Moreover, the GI50 in [13], in experiment [14], in experiment [15], in [16], in [17] and in [18] was > 100 µM (inactive) each time. The GI50 in experiment [19] and in experiment [20] was > 100 µM (inactive) throughout.
